Test results: ChEMBL document CHEMBL1142732, “In-depth study of tripeptide-based alpha-ketoheterocycles as inhibitors of thrombin. Effective utilization of the S1' subsite and its implications to structure-based drug design” (J Med Chem, 2005); call rule not given here
Values belong to the compound of their own block, whether it stands above or below them.

Tests used:
Serine protease 1 [1] = molecular target: T1, Serine protease 1 (Bos taurus, UniProt P00760); experiment: Binding affinity against bovine trypsin; NA=Not active at 1 uM
T1 sequence (P00760 whole entry): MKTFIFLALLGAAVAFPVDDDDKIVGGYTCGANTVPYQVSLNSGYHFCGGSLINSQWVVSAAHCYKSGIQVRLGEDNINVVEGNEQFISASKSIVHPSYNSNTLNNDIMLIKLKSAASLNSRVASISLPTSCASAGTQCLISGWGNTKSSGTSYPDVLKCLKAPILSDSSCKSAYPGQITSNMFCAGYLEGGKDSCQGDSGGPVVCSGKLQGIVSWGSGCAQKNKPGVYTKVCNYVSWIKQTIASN

Serine protease 1 [2] = molecular target: T1, Serine protease 1; experiment: Inhibitory concentration against bovine trypsin; NT=Not determined
Serine protease 1 [3] = molecular target: T1, Serine protease 1; experiment: Binding affinity against bovine trypsin
Prothrombin [4] = molecular target: T2, Prothrombin (Homo sapiens, UniProt P00734); experiment: Inhibitory concentration against human alpha thrombin
Homo sapiens [5] = species on record: Homo sapiens; experiment: Inhibitory concentration against gel filtered platelet aggregation induced by alpha thrombin; format: functional
Prothrombin [6] = molecular target: T2, Prothrombin; experiment: Binding affinity determined against human alpha thrombin
Cavia porcellus [7] = experiment: Percent change in blood pressure in guinea pig at 3 mg/kg dose
Prothrombin [8] = molecular target: T2, Prothrombin; experiment: Inhibition constant against human alpha thrombin
Serine protease 1 [9] = molecular target: T1, Serine protease 1; experiment: Inhibitory concentration against bovine trypsin; Not determined
Serine protease 1 [10] = molecular target: T1, Serine protease 1; experiment: Inhibitory concentration against bovine trypsin
Prothrombin [11] = molecular target: T2, Prothrombin; experiment: Binding affinity against human alpha thrombin; […]
Canis familiaris = experiment: In vivo effective intravenous dose for that reduces thrombus weight accumulation on a silk fiber by 50% was determined in Dog arteriovenous shunt model; format: functional; conditions: Canis lupus familiaris
[12] = Oral bioavailability was determined in conscious rat after 10 mg/kg dosage through gavage; format: ADME, organism-based; conditions: in vivo
Cavia porcellus [13] = species on record: Cavia porcellus; experiment: animal or person; conditions: Blood, iv
Description: In vivo effective intravenous dose for eliciting a 25% decrease in blood pressure in anesthetized Guinea pig

[14] = Half life was determined in rat after an intravenous dose of 1 mg/kg; format: ADME, organism-based; set-up: dose 1 mg/kg, route intravenous; conditions: in vivo
[15] = Oral half life was determined in conscious rat after 10 mg/kg dosage through gavage; format: ADME, organism-based; set-up: dose 10 mg/kg; conditions: in vivo
Cavia porcellus [16] = experiment: Percent change in blood pressure in guinea pig at 10 mg/kg dose
Homo sapiens [17] = species on record: Homo sapiens; experiment: Inhibitory concentration of the compound was determined against gel filtered platelet aggregation induced by alpha thrombin; format: functional
Oryctolagus cuniculus = experiment: In vivo effective intravenous dose for that was determined in Rabbit deep vein thrombosis model
Prothrombin [18] = molecular target: T2, Prothrombin; experiment: Inhibitory concentration against human alpha thrombin; NA=Not active at 1 uM
Prothrombin [19] = molecular target: T2, Prothrombin; experiment: Inhibitory concentration against human alpha thrombin; NT=Not active at 300 uM
Serine protease 1 [20] = molecular target: T1, Serine protease 1; experiment: Binding affinity against bovine trypsin; NT=Not active at 100 uM
Prothrombin [21] = molecular target: T2, Prothrombin; experiment: Binding affinity against human alpha thrombin; SB = slow-binding kinetics
Cavia porcellus [22] = experiment: Percent change in blood pressure in guinea pig at 1 mg/kg dose
Prothrombin [23] = molecular target: T2, Prothrombin; experiment: Inhibitory concentration against human alpha thrombin; NA = Not active at 1 uM
Serine protease 1 [24] = molecular target: T1, Serine protease 1; experiment: Inhibitory concentration against bovine trypsin; ND=Not determined
Cavia porcellus [25] = experiment: Percent change in blood pressure in guinea pig at 20 mg/kg dose
Prothrombin [26] = molecular target: T2, Prothrombin; experiment: Binding affinity against human alpha thrombin; SB = Slow-binding
Cavia porcellus [27] = experiment: Cardiovascular safety ratio ratiod (ED-25:ED50) estimation, which is based on a comparison of the hypotensive response in anesthetized guinea pigs to the anticoagulant / antithrombotic response in dogs; format: functional
Cavia porcellus [28] = experiment: Cardiovascular safety ratio ratiod (ED-25:ED50) estimation, which is based on a comparison of the hypotensive response in anesthetized guinea pigs to the anticoagulant / antithrombotic response in rabbit; format: functional

SMILES: CCCC[C@H](NC(=O)[C@@H]1CCCN1C(=O)[C@@H](Cc1ccccc1)NC)C(=O)c1nc2ccccc2s1
Ki (Serine protease 1 [1]): Not Active

IC50 (Serine protease 1 [2]): 32000 nM
SMILES: CN[C@H](Cc1ccccc1)C(=O)N1CCC[C@H]1C(=O)N[C@@H](CCCN=C(N)N)Cc1nc2ccccc2s1

SMILES: CN[C@H](Cc1ccccc1)C(=O)N[C@H](C(=O)NC(CCCN=C(N)N)C(=O)c1nc2ccccc2s1)C(C)C (stereo partly drawn)
Ki (Serine protease 1 [3]): 1.5 nM
IC50 (Prothrombin [4]): 440 nM
IC50 (Homo sapiens [5]): 180 nM
Ki (Prothrombin [6]): 21 nM
Delta BP (Cavia porcellus [7]): -47%
Ki (Prothrombin [8]): 21 nM

IC50 (Serine protease 1 [9]): 30000 nM
SMILES: CN[C@H](Cc1ccccc1)C(=O)N1CCC[C@H]1C(=O)N[C@H](CCCN=C(N)N)Cc1nc2ccccc2s1

IC50 (Prothrombin [4]): 17000 nM
IC50 (Serine protease 1 [10]): 5.8 nM
SMILES: N=C(N)NCCCC(NC(=O)[C@@H]1CCCN1C(=O)N[C@H](C=O)Cc1ccccc1)C(=O)c1nc2ccccc2s1 (stereo partly drawn)

SMILES: CN[C@@H](C(=O)N1CCC[C@H]1C(=O)NC(CCCN=C(N)N)C(=O)c1nc2ccccc2s1)C(c1ccccc1)c1ccccc1 (stereo partly drawn)
IC50 (Prothrombin [4]): 4.5 nM
Ki (Prothrombin [11]): Slow Binding
IC50 (Homo sapiens [5]): 43 nM
Delta BP (Cavia porcellus [7]): -54%
IC50 (Serine protease 1 [10]): 352 nM

SMILES: CN[C@H](Cc1ccccc1)C(=O)N1CCC[C@H]1C(=O)NC(CCCN=C(N)N)C(=O)c1nc2ccc(C(=O)O)cc2s1 (stereo partly drawn)
ED50 (Canis familiaris): 0.14 mg/kg
bioavailability [12]: 3%
Ki (Serine protease 1 [3]): 2.7 nM
ED25 (Cavia porcellus [13]): 13 mg/kg
half-life [14]: 25 min
half-life [15]: 60 min
Delta BP (Cavia porcellus [16]): -32%
IC50 (Homo sapiens [17]): 41 nM
ED50 (Oryctolagus cuniculus): 0.43 mg/kg

SMILES: CN[C@H](Cc1ccccc1)C(=O)N1CCC[C@H]1C(=O)N[C@@H](Cc1ccccc1)C(=O)c1nc2ccccc2s1
IC50 (Prothrombin [18]): Not Active
Ki (Serine protease 1 [3]): 12000 nM
Ki (Prothrombin [6]): 7100 nM

SMILES: N=C(N)NCCCCC(=O)c1nc2ccccc2s1
IC50 (Prothrombin [19]): Not Active
Ki (Serine protease 1 [20]): Not Active

SMILES: CNCCCC[C@@H](NC(=O)[C@@H]1CCCN1C(=O)[C@@H](Cc1ccccc1)NC)C(=O)c1nc2ccccc2s1
IC50 (Prothrombin [18]): Not Active
Ki (Serine protease 1 [3]): 1000 nM
Ki (Prothrombin [6]): 3500 nM

SMILES: N=C(N)NCCCC(NC(=O)[C@@H]1CCCN1C(=O)CC(c1ccccc1)c1ccccc1)C(=O)c1nc2ccccc2s1 (stereo partly drawn)
Ki (Serine protease 1 [3]): 22 nM
IC50 (Prothrombin [4]): 11 nM
IC50 (Homo sapiens [5]): 29 nM
Ki (Prothrombin [6]): 1.1 nM
Delta BP (Cavia porcellus [7]): -25%
Ki (Prothrombin [8]): 3.1 nM

Ki (Serine protease 1 [3]): 0.3 nM
Ki (Prothrombin [11]): Slow Binding
SMILES: CN[C@H](Cc1ccccc1)C(=O)N1CCC[C@H]1C(=O)NC(CCCN=C(N)N)C(=O)c1nc2ccc(C(N)=O)cc2s1 (stereo partly drawn)

Ki (Prothrombin [21]): Slow Binding
Ki (Serine protease 1 [3]): 0.3 nM
SMILES: NC(N)=NCCCC(NC(=O)[C@@H]1CCCN1C(=O)[C@H](N)Cc1ccccc1)C(=O)c1nc2ccccc2s1 (stereo partly drawn)

SMILES: CNCCCC[C@H](NC(=O)[C@@H]1CCCN1C(=O)[C@@H](Cc1ccccc1)NC)C(=O)c1nc2ccccc2s1
Delta BP (Cavia porcellus [22]): -16%
Ki (Serine protease 1 [3]): 1200 nM
IC50 (Homo sapiens [5]): 5200 nM
Ki (Prothrombin [6]): 3700 nM
IC50 (Prothrombin [23]): Not Active

IC50 (Prothrombin [4]): 8400 nM
IC50 (Serine protease 1 [10]): 630 nM
SMILES: CN[C@H](Cc1ccccc1)C(=O)N1CCC[C@H]1C(=O)N[C@@H](CCCCN=C(N)N)C(=O)c1nc2ccccc2s1

SMILES: CN[C@H](Cc1ccccc1)C(=O)N1CCC[C@H]1C(=O)N[C@@H](C(=O)c1nc2ccccc2s1)C1CCC(CN)CC1 (stereo partly drawn)
IC50 (Prothrombin [18]): Not Active
Ki (Serine protease 1 [3]): 4000 nM
Ki (Prothrombin [6]): 1450 nM

SMILES: CN[C@H](Cc1ccccc1)C(=O)N1CCC[C@H]1C(=O)N[C@@H](CCCN=C(N)N)C(=O)c1nc2ccccc2s1
ED50 (Canis familiaris): 0.46 mg/kg
IC50 (Prothrombin [4]): 29 nM
ED25 (Cavia porcellus [13]): 0.9 mg/kg
IC50 (Homo sapiens [5]): 32 nM
Delta BP (Cavia porcellus [7]): -85%
Ki (Prothrombin [8]): 0.18 nM
ED50 (Oryctolagus cuniculus): 0.25 mg/kg

IC50 (Serine protease 1 [24]): 58000 nM
IC50 (Prothrombin [4]): > 100000 nM
SMILES: CN[C@H](Cc1ccccc1)C(=O)N1CCC[C@H]1C(=O)N[C@H](CC(=O)c1nc2ccccc2s1)[C@H]1CC[C@H](N)CC1

IC50 (Serine protease 1 [24]): 22000 nM
IC50 (Prothrombin [4]): > 100000 nM
SMILES: CN[C@H](Cc1ccccc1)C(=O)N1CCC[C@H]1C(=O)N[C@@H](CC(=O)c1nc2ccccc2s1)[C@H]1CC[C@H](N)CC1

SMILES: N=C(N)NCCC[C@H](NC(=O)[C@@H]1CCCN1C(=O)[C@H](CO)NS(=O)(=O)c1cccc2ccccc12)C(=O)c1nc2ccccc2s1
Ki (Serine protease 1 [3]): 2.9 nM
IC50 (Prothrombin [4]): 110 nM
IC50 (Homo sapiens [5]): 34 nM
Ki (Prothrombin [6]): 0.78 nM
Delta BP (Cavia porcellus [25]): -30%
Ki (Prothrombin [8]): 10 nM

Ki (Prothrombin [6]): 1400 nM
IC50 (Serine protease 1 [10]): 540 nM
SMILES: CN[C@H](Cc1ccccc1)C(=O)N1CCC[C@H]1C(=O)N[C@@H](Cc1ccc(C(=N)N)cc1)C(=O)c1nc2ccccc2s1

Ki (Serine protease 1 [3]): 6000 nM
IC50 (Prothrombin [4]): 3700 nM
Ki (Prothrombin [26]): 430 nM
SMILES: CN[C@H](Cc1ccccc1)C(=O)N1CCC[C@H]1C(=O)N[C@@](C)(CCCN=C(N)N)C(=O)c1nc2ccccc2s1

SMILES: CN[C@H](Cc1ccccc1)C(=O)N1CCC[C@H]1C(=O)NC(CCCN=C(N)N)C(=O)c1nc2ccc(C(=O)OC)cc2s1 (stereo partly drawn)
ED50 (Canis familiaris): 0.47 mg/kg
Ki (Serine protease 1 [3]): 31 nM
ED25 (Cavia porcellus [13]): 13.4 mg/kg
IC50 (Homo sapiens [5]): 39 nM
Delta BP (Cavia porcellus [16]): -16%
ED50 (Oryctolagus cuniculus): 0.35 mg/kg

SMILES: N=C(N)NCCCC(NC(=O)[C@@H]1CCCN1C(=O)[C@@H](CC1CCCCC1)NCC(=O)O)C(=O)c1nc2ccccc2s1 (stereo partly drawn)
Ki (Serine protease 1 [3]): 22 nM
IC50 (Prothrombin [4]): 29 nM
IC50 (Homo sapiens [5]): 16 nM
Ki (Prothrombin [6]): 0.36 nM
Delta BP (Cavia porcellus [16]): -47%

SMILES: CCS(=O)(=O)N[C@H](Cc1ccccc1)C(=O)N1CCC[C@H]1C(=O)NC(CCCN=C(N)N)C(=O)c1nc2ccccc2s1 (stereo partly drawn)
Ki (Serine protease 1 [3]): 31 nM
IC50 (Prothrombin [4]): 500 nM
IC50 (Homo sapiens [5]): 46 nM
Ki (Prothrombin [6]): 24 nM
Delta BP (Cavia porcellus [16]): -36%
Ki (Prothrombin [8]): 24 nM

SMILES: CN[C@H](Cc1ccccc1)C(=O)N1CCC[C@H]1C(=O)N[C@H](C=O)CCCNC(=N)N (stereo in doubt; 1b)
ED50 (Canis familiaris): 0.66 mg/kg
Ratio (Cavia porcellus [27]): 43
Ki (Serine protease 1 [3]): 9.1 nM
IC50 (Prothrombin [4]): 85 nM
ED25 (Cavia porcellus [13]): 28.6 mg/kg
IC50 (Homo sapiens [5]): 83 nM
Ki (Prothrombin [6]): 18 nM
Delta BP (Cavia porcellus [16]): -21%
Ratio (Cavia porcellus [28]): 136
Ki (Prothrombin [8]): 18 nM
ED50 (Oryctolagus cuniculus): 0.21 mg/kg
